Test results: patent US12122816B2, “Long acting peptide tyrosine tyrosine (PYY) analogs and methods of use” (Intarcia Therapeutics, Inc., priority 2020, dated 2024)
Starred links: 1 amine or outer side, 2 acyl side, 3 side chain; linkers in the order of their positions; H or OH if unused. Residues, ends and D or L forms follow the SMILES beside them. Groups on a side chain read outwards from the residue. *: point of attachment. C20 diacid = O=C(O)CCCCCCCCCCCCCCCCCCC(=O)*; γGlu = O=C(O)[C@H](CCC(=O)[*:2])N[*:1]

Experiments:
human Y2 receptor = molecular target: T1, human Y2 receptor (Homo sapiens, UniProt P49146); assay: NPY receptor functional assay (cAMP, HEK-CNG cells, ACTOne membrane potential dye); assay type: cell-based; details: NPY2R pEC50, HEK-CNG cells; standard PYY(3-36); species (human or rat) not given
T1 sequence (P49146 1-381): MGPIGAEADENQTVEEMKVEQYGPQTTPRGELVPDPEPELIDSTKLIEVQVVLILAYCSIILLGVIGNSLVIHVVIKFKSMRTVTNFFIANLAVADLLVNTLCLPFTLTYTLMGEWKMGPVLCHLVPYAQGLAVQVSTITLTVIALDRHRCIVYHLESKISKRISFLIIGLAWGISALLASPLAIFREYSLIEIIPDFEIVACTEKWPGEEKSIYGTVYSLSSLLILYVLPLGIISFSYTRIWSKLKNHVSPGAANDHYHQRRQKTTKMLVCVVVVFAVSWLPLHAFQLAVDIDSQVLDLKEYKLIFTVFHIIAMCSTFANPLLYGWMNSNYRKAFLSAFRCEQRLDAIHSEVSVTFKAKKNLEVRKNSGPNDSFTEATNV
Outline: (§1)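 HEK-CNG cells stably expressing each human receptor; peptides added in triplicate for 50 minutes at room temperature, with agonism read as decreased isoproterenol-induced membrane potential dye signal (final/initial read).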

human Y5 receptor = molecular target: T2, human Y5 receptor (Homo sapiens, UniProt Q15761); assay: as above; assay type: cell-based; details: NPY5R pEC50, HEK-CNG cells; standard NPY; species (human or rat) not given
T2 sequence (Q15761 1-445): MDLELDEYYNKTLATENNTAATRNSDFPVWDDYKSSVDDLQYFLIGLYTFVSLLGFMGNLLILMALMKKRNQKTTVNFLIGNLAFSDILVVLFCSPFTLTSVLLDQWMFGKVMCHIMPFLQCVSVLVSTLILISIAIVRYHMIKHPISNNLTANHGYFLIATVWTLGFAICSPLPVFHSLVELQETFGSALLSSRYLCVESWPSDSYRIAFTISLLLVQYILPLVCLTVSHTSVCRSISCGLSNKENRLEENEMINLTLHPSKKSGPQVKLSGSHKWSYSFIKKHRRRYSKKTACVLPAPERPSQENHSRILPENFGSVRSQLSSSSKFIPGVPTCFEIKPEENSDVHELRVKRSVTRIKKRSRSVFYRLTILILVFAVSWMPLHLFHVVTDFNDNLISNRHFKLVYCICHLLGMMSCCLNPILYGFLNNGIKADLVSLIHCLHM
Outline: as §1

[1] = In vitro metabolic stability in kidney brush border membranes (kBBM); assay type: in vitro ADME; details: pH 7.4, human kBBM 50 mcg protein/mL, 1 mcM peptide, 37° C., read-out: hkBBM t½ (converted)
Method: In vitro incubations in kidney brush border membrane (kBBM) preparations were used to characterize the ability of peptides to resist degradation by proteases and peptidases in the systemic circulation. kBBM were selected because they contain a high concentration of a diverse set of proteases and peptidases, many of which are present throughout the body.
Brush border membranes from rat and human kidney tissue were prepared via centrifugation and stored at −70° C. Thawed stocks of rat or human kBBM were diluted to the appropriate concentration in 25 mM HEPES buffer (pH 7.4) containing 1% casein and aliquoted into a 96-well plate. The kBBM solutions were pre-warmed for 10 minutes at 37° C. […] The final concentration of kBBM in each incubation was 50 mcg protein/mL. Reactions were maintained at 37° C. in a shaking water bath. […] Quenched samples were centrifuged at 2178×g for 10 min and then a portion of the supernatants were transferred to a clean 96-well plate and diluted 1:1 with water. Samples were analyzed by UPLC-MS/MS.

[2] = In vitro stability in subcutaneous (SC) tissue homogenates; assay type: in vitro ADME; details: subcutaneous tissue homogenate, pH 7.4; human SC tissue homogenate 1.0 mg protein/mL, 10 mcM peptide, 37° C.; read-out: (H)SC tissue stability t½ (converted)
Method: In vitro incubations in subcutaneous (SC) tissue homogenates were used to characterize the ability of peptides to resist pre-systemic degradation by proteases and peptidases after SC administration. […] Peptides with high SC bioavailability are stable in this assay, while peptides with low SC bioavailability are unstable in this assay.
Human SC tissue was homogenized in cold 25 mM HEPES buffer (pH 7.4, 10-fold volume based on sample weight), and then filtered through a double layer of cheesecloth. The filtrates were aliquoted, flash frozen on a methanol/dry ice bath and stored at −80° C. The protein concentration of each pooled batch was determined using the BCA protein assay. Thawed stocks of human SC tissue homogenates were diluted to 1.0 mg protein/mL in 25 mM HEPES buffer (pH 7.4) and aliquoted into a 96-well plate. The diluted SC homogenates were pre-warmed for 10 minutes at 37° C. […] Reactions were maintained at 37° C. in a shaking water bath. […] Quenched samples were centrifuged at 2178×g for 10 min and then a portion of the supernatants were transferred to a clean 96-well plate and diluted 1:10 with water. Samples were analyzed by UPLC-MS/MS.

Structure (SMILES) | EC50 (human Y2 receptor) | EC50 (human Y5 receptor) | half-life at 1 mcM [1] | half-life at 10 mcM [2]
CC(C)C[C@H](NC(=O)[C@H](CC(=O)O)NC(=O)[C@H](CCCCN)NC(=O)[C@H](Cc1ccc(O)cc1)NC(=O)[C@H](Cc1ccc(O)cc1)NC(=O)[C@H](CCCNC(=N)N)NC(=O)[C@H](CC(N)=O)NC(=O)[C@H](Cc1c[nH]c2ccccc12)NC(=O)[C@H](CCC(=O)O)NC(=O)[C@H](CCCCN)NC(=O)[C@@H]1CCCN1C(=O)[C@H](CO)NC(=O)[C@H](C)NC(=O)[C@H](CC(=O)O)NC(=O)[C@H](CCCCNC(=O)CC[C@H](NC(=O)CC[C@H](NC(=O)CCCCCCCCCCCCCCCCCCC(=O)O)C(=O)O)C(=O)O)NC(=O)CNC(=O)[C@@H]1CCCN1C(=O)[C@H](CCCCN)NC(=O)[C@H](CCC(=O)O)NC(=O)[C@@H]1CCCN1C(=O)[C@H](CCCCN)NC(=O)[C@@H]1CCCN1)C(=O)N[C@@H](CCCNC(=N)N)C(=O)N[C@@H](Cc1c[nH]cn1)C(=O)N[C@@H](Cc1ccc(O)cc1)C(=O)N[C@@H](CC(C)C)C(=O)N[C@@H](CC(N)=O)C(=O)N[C@@H](Cc1c[nH]c2ccccc12)C(=O)N[C@@H](CC(C)C)C(=O)N[C@H](C(=O)N[C@@H](CCCNC(=N)N)C(=O)N[C@@H](CCC(N)=O)C(=O)N[C@@H](CCCNC(=N)N)C(=O)N[C@@H](Cc1ccccc1)C(N)=O)[C@@H](C)O [Compound A27] (H-PKPEKPGK([γGlu-γGlu-C20 diacid])DASPKEWNRYYKDLRHYLNWLTRQRF-NH2; N-terminus assumed) | 0.02 nM | 1.26 nM | 10 h | 0.2 h
CC(C)C[C@H](NC(=O)[C@H](CC(=O)O)NC(=O)[C@H](CCCCNC(=O)CC[C@H](NC(=O)CC[C@H](NC(=O)CCCCCCCCCCCCCCCCCCC(=O)O)C(=O)O)C(=O)O)NC(=O)[C@H](Cc1ccc(O)cc1)NC(=O)[C@H](Cc1ccc(O)cc1)NC(=O)[C@H](CCCNC(=N)N)NC(=O)[C@H](CC(N)=O)NC(=O)[C@H](Cc1c[nH]c2ccccc12)NC(=O)[C@H](CCC(=O)O)NC(=O)[C@H](CCCCN)NC(=O)[C@@H]1CCCN1C(=O)[C@H](CO)NC(=O)[C@H](C)NC(=O)[C@H](CC(=O)O)NC(=O)[C@H](CCCCN)NC(=O)CNC(=O)[C@@H]1CCCN1C(=O)[C@H](CCCCN)NC(=O)[C@H](CCC(=O)O)NC(=O)[C@@H]1CCCN1C(=O)[C@H](CCCCN)NC(=O)[C@@H]1CCCN1)C(=O)N[C@@H](CCCNC(=N)N)C(=O)N[C@@H](Cc1c[nH]cn1)C(=O)N[C@@H](Cc1ccc(O)cc1)C(=O)N[C@@H](CC(C)C)C(=O)N[C@@H](CC(N)=O)C(=O)N[C@@H](Cc1c[nH]c2ccccc12)C(=O)N[C@@H](CC(C)C)C(=O)N[C@H](C(=O)N[C@@H](CCCNC(=N)N)C(=O)N[C@@H](CCC(N)=O)C(=O)N[C@@H](CCCNC(=N)N)C(=O)N[C@@H](Cc1ccccc1)C(N)=O)[C@@H](C)O [Compound A28] (H-PKPEKPGKDASPKEWNRYYK([γGlu-γGlu-C20 diacid])DLRHYLNWLTRQRF-NH2; N-terminus assumed) | 0.0316 nM | 1.58 nM | 5.2 h | 0.2 h
